Several values for one entry are separate records, joined by “and”; a condition that tells them apart may be missing. Equal entries are not always repeated.
What was measured:
[1] = test system: HT-29 (colon adenocarcinoma); assay: MTT cell viability assay, HT-29; type: cell-based; details: Homo sapiens, HT-29, 48 h, 2 days incubation, average ±SD of three experiments
Experimental: (§1) The effects of triazole derivatives 1–26 on the cell viability were determined by MTT assay, and the IC50 values were determined toward the human tumor cell lines HT-29 (colon adenocarcinoma), A-549 (lung adenocarcinoma), and MCF-7 (breast adenocarcinoma), as well as toward the non-tumor cell line HEK-293 (human embryonic kidney cells).
(§2) In 96-well plates, 3 × 10^3 (A549 and HEK-293) or 5 × 10^3 (HT-29, MCF-7) cells per well were incubated with serial dilutions of the tested compounds in a total volume of 100 μL of their growth media. The 3-(4,5-dimethylthiazol-2-yl)-2,5-diphenyltetrazolium bromide (MTT; Sigma Chemical Co.) dye reduction assay in 96-well microplates was used. After 2 days of incubation (37 °C, 5% CO2 in a humid atmosphere), 10 μL of MTT (5 mg/mL in phosphate-buffered saline, PBS) was added to each well, and the plate was incubated for a further 3 h (37 °C). After that, the supernatant was discarded and replaced by 100 µL of DMSO to dissolve formazan crystals. The absorbance was then read at 550 nm by spectro-photometry. For all concentrations of compound, cell viability was expressed as the percentage of the ratio between the mean absorbance of treated cells and the mean absorbance of untreated cells. Three independent experiments were performed, and the IC50 values (i.e., concentration half inhibiting cell proliferation) were graphically determined by using GraphPad Prism 4 software (2019).

[2] = test system: HEK-293 (human embryonic kidney cells); assay: MTT cell viability assay, HEK-293; type: cell-based; details: HEK293, 48 h, 2 days incubation, non-tumor cell line, average ±SD of three experiments
Experimental: as §1, §2

[3] = biological target: T1, membrane VEGFR-2 (mVEGFR-2) (Homo sapiens, UniProt P35968); assay: Membrane VEGFR-2 relative quantification by flow cytometry; type: cell-based; details: for mVEGFR-2 relative detection, A-549 / mVEGFR-2 relative detection, HT-29 / mVEGFR-2 relative detection, MCF-7: 24 h, 100 or 10 μM (Table 7), sorafenib 10 μM, percentage referred to DMSO control; for Inhibition of membrane VEGFR-2, HT-29: with respect to untreated cells
T1 construct: endogenous in cells; host or cells: HT-29, A-549, MCF-7
Experimental: The presence of both targets in the membrane was relatively determined by using DMSO-treated cells as a negative control.
(§3) For the assay, 10^5 cells per well were incubated for 24 h with the corresponding dose of the tested compound in a total volume of 500 μL of their growth media.

total PD-L1 (tPD-L1) = biological target: T2, total PD-L1 (tPD-L1) (Homo sapiens, UniProt Q9NZQ7); assay: Total PD-L1 relative quantification by flow cytometry; type: cell-based; details: for tPD-L1 relative detection, A-549 / tPD-L1 relative detection, HT-29 / tPD-L1 relative detection, MCF-7: 24 h, 100 or 10 μM (Table 7), relative to DMSO control
T2 construct: endogenous in cells; host or cells: HT-29, A-549, MCF-7
Experimental: (§4) The study was carried out again on HT-29, A-549, and MCF-7 cell lines by flow cytometry after 24 h of treatment with the corresponding compounds. The presence of the targets in the whole cell were relatively determined by using DMSO-treated cells as a negative control and BMS-8 as a positive one for PD-L1 (Table 3).
(§5) To study the effect of the compounds on every biological target in cancer cell lines the compounds were used at a 100 or 10 μM dose, depending on their IC50 and the treated cell line.
as §3
(§6) For the detection of total PD-L1, VEGFR-2, and c-Myc, the procedure was the same as for membrane targets, but after fixation, a treatment with 0,5% in PBS TritonTM X-100 was performed. The antibodies used for PD-L1 and VEGFR-2 were the ones previously described, and for the detection of c-Myc, it was FITC Rabbit monoclonal anti-c-Myc (ab223913).

c-Myc = c-Myc relative quantification by flow cytometry; type: cell-based, human; details: for c-Myc relative detection, A-549 / c-Myc relative detection, HT-29 / c-Myc relative detection, MCF-7: 24 h, 100 or 10 μM (Table 7), relative to DMSO control
Experimental: as §4, §5, §3, §6

PD-L1 = biological target: T3, PD-L1 (Homo sapiens, UniProt Q9NZQ7); assay: Protein thermal shift (PTS) assay; type: binding; details: for PTS Tm: PD-L1 melting temperature, DMSO 34 °C; for PTS ΔTm: shift of PD-L1 melting temperature vs DMSO
T3 construct: purchased ab167713
Source text: This assay measures the melting point (Tm) of the target protein which is a proxy of its stability that can be altered by the binding of a ligand. A change in the melting point relative to the unliganded form implies that a ligand has bound itself to the targeted protein. According to the fundamentals of this technique, an increase in Tm means that the binding of the ligand leads to a stabilization of the target protein, while a decrease in Tm is probably due to the fact that the binding between the ligand and its target leads to a destabilization of the protein. In this case, the tested compounds were able to change the PD-L1 melting temperature.
PTS assay was performed by following the instructions indicated in Protein Thermal ShiftTM Dye Kit (Applied Biosystems reference 4461146), using 2 μL of a 0.1 mg/mL of an aqueous solution of PD-L1 (reference ab167713) and 1.5 μL of a 0.1 mg/mL aqueous solution of the corresponding product. The melting curves were registered by a StepOneTM Real-Time PCR System.

HMEC-1 cells [4] = assay: Tube disruption on Matrigel (antivascular activity); type: cell-based; details: 100 μM added to 24 h networks, observed after another 24 h
Experimental: The antivascular and antiangiogenic activities of the selected compounds, namely 21, 22, and 23, were settled by 3D Matrigel cell cultures. First, we studied the effect on a microvessel network from HMEC-1 cells. HMEC-1 cells were on Matrigel, and after 24 h, when organized capillary networks were formed, 100 μM of the corresponding compounds, 21–23, was added. After another 24 h, we compared the treated networks with the one that received no treatment (see Figure 5a–c).
(§7) Wells of a IBIDI 15-well μ-plate for angiogenesis were coated with 15 μL of Matrigel® (10 mg/mL, BD Biosciences Europe) at 4 °C. After gelatinization at 37 °C for 30 min, HMEC-1 cells were seeded at 2 × 10^4 cells/well in 25 μL of culture medium on top of the Matrigel and were incubated for 30 min at 37 °C while they were attached.
For the tube disruption assay (study of antivascular activity), after 24 h, we checked that the capillary networks were formed on wells, and then 100 μM of compounds was added. After 24 h of treatment, the cultures were observed again, and pictures of each well were taken.

HMEC-1 cells [5] = assay: Tube formation on Matrigel (antiangiogenic activity); type: cell-based; details: 100 μM, 24 h
Experimental: Then we went on to study the effect of these selected compounds on the formation of new capillary networks. Again, HMEC-1 cells were seeded on Matrigel and treated with compounds 21, 22, and 23 at 100 μM. After 24 h of the corresponding treatments, we compared the cultures with non-treated cells, and the results are depicted in Figure 5d–f.
as §7
For the tube-formation assay (study of antiangiogenic activity), 100 μM of compounds was added 20 min after seeding HMEC-1 on Matrigel.

T1 sequence (P35968 20-1356): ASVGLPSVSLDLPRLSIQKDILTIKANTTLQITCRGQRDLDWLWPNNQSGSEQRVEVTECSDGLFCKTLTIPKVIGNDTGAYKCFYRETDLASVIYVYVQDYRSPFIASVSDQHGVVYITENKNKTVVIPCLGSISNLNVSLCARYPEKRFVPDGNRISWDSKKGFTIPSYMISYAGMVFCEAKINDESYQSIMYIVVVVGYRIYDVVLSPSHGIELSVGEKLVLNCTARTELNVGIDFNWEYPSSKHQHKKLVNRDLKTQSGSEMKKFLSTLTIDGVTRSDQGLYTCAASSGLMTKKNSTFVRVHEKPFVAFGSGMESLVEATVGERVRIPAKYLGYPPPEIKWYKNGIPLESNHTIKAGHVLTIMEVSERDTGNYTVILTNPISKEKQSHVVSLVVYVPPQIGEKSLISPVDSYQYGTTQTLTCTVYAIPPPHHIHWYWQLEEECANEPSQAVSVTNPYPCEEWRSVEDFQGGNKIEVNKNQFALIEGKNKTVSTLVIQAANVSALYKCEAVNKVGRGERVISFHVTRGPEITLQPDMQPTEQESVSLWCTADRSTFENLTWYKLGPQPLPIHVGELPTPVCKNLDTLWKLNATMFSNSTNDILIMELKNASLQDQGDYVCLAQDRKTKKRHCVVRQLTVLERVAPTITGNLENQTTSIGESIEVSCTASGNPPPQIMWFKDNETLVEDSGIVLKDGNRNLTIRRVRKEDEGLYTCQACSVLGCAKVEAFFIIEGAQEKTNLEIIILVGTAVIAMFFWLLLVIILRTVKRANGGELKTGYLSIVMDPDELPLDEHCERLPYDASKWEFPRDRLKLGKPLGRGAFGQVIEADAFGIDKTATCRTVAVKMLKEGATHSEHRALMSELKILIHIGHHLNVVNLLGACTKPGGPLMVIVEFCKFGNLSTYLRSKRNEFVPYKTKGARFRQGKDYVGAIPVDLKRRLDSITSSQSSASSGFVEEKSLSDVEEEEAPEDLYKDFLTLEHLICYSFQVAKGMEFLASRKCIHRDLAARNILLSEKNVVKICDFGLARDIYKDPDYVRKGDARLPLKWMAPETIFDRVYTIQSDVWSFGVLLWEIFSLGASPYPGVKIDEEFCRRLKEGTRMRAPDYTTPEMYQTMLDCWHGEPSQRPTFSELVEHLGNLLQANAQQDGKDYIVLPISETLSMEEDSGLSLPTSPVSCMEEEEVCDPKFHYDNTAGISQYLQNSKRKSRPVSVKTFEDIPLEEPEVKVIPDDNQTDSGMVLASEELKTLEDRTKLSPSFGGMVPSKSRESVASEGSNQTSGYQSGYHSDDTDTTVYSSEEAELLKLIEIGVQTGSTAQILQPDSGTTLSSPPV
T2 sequence (Q9NZQ7 19-290): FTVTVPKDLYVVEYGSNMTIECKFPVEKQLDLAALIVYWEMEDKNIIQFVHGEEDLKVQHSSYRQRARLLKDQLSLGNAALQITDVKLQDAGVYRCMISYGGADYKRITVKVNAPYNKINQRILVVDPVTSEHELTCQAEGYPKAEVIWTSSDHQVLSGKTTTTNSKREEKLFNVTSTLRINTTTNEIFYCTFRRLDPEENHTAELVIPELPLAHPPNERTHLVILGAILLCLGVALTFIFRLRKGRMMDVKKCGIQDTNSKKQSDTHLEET
T3 sequence (Q9NZQ7 19-290): as above

Row | Compound | IC50 [1] [µM] | IC50 [2] [µM] | mVEGFR-2 relative detection, A-549 [3] [%] | mVEGFR-2 relative detection, HT-29 [3] | mVEGFR-2 relative detection, MCF-7 [3] [%] | tPD-L1 relative detection, A-549 (total PD-L1 (tPD-L1)) [%] | tPD-L1 relative detection, HT-29 (total PD-L1 (tPD-L1)) [%] | tPD-L1 relative detection, MCF-7 (total PD-L1 (tPD-L1)) [%] | c-Myc relative detection, A-549 (c-Myc) [%] | c-Myc relative detection, HT-29 (c-Myc; HT-29) [%] | c-Myc relative detection, MCF-7 (c-Myc) [%] | PTS Tm (PD-L1) [°C] | PTS ΔTm (PD-L1) [°C] | Antivascular effect on formed HMEC-1 capillary networks (HMEC-1 cells [4]) | Antiangiogenic effect on formation of new HMEC-1 capillary networks (HMEC-1 cells [5]) | melting point [°C] | Inhibition of membrane VEGFR-2, HT-29 [3] [%] | Inhibition of total PD-L1, MCF-7 (total PD-L1 (tPD-L1)) | Inhibition of c-Myc, HT-29 (c-Myc; HT-29, compared to non-treated cells) [%]
1 | Nc1ccc(-c2cn(Cc3ccccc3Cl)nn2)cc1 [Compound 21, 4-(1-(2-chlorobenzyl)-1H-1,2,3-triazol-4-yl)aniline] | > 100 | > 100 | >100 | 92 ± 5% | >100 | 78 ± 9 | 60 ± 6 | >100 | >100 | >100 | 59 ± 6 | 30 | −4 | disturbance of the formed microvasculature-like network | interfered with the formation of new microvessel networks | 112 to 115 | – | – | –
2 | Nc1ccc(-c2cn(Cc3cccc(Cl)c3)nn2)cc1 [Compound 22, 4-(1-(3-chlorobenzyl)-1H-1,2,3-triazol-4-yl)aniline] | > 100 | > 100 | >100 | – | >100 | 75 ± 10 | 52 ± 7 | 69 ± 7 | >100 | >100 | 59 ± 5 | 26 | −8 | disturbance of the formed microvasculature-like network | interfered with the formation of new microvessel networks | 143 to 144 | ~40 | around 40% | –
3 | Nc1ccc(-c2cn(Cc3ccc(Cl)cc3)nn2)cc1 [Compound 23, 4-(1-(4-chlorobenzyl)-1H-1,2,3-triazol-4-yl)aniline] | > 100 | > 100 | >100 | 65% and 65 ± 4% | >100 | 81 ± 15 | 52 ± 3 | 61 ± 14 | >100 | 84 ± 5 | 51 ± 8 | 29 | −5 | disturbance of the formed microvasculature-like network | interfered with the formation of new microvessel networks | 164 to 166 | ~40 | around 40% | 20
